Source: publication PMC9873984, “Membrane cholesterol regulates inhibition and substrate transport by the glycine transporter, GlyT2” (Life Science Alliance, 2023)
pEC50: −log10 of the molar value.

Biological target: T1, GlyT2 T512A mutant (Homo sapiens, UniProt Q9Y345, T512A)
T1 sequence (Q9Y345 1-797 T512A): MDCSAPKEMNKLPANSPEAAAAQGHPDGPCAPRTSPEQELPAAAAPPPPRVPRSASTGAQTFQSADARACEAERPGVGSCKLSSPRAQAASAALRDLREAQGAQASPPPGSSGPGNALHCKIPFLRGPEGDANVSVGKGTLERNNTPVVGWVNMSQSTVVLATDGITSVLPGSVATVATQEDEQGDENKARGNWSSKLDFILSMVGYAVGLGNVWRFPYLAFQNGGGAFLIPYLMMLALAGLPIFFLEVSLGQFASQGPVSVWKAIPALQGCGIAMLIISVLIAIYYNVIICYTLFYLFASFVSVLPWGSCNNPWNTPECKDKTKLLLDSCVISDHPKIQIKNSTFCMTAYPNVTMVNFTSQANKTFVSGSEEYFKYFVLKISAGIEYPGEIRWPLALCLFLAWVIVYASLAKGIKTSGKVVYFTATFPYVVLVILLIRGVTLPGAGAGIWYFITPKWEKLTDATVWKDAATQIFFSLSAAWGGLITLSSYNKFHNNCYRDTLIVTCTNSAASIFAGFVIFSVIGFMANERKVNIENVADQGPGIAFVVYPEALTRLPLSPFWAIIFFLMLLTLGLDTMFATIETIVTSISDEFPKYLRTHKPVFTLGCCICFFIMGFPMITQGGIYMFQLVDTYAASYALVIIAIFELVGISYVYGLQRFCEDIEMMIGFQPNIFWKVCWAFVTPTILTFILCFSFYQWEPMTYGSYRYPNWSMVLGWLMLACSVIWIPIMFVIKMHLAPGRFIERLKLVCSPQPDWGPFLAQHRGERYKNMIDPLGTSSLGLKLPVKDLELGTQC
Excerpt: GlyT2a (referred to herein as GlyT2) was subcloned into the plasmid oocyte transcription vector (pOTV) for expression in Xenopus laevis oocytes. Oligonucleotide primers incorporating desired mutations were synthesized by Sigma-Aldrich and used to generate point mutations in the GlyT2 cDNA/pOTV construct using the Q5 site-directed mutagenesis kit (New England Biolabs [Genesearch]). Amplified PCR products were transformed into chemically competent E. coli cells and purified using the GeneJET Plasmid Miniprep Kit (Thermo Fisher Scientific). Purified plasmid DNA was sequence-verified by the Australian Genome Research Facility. pOTV constructs were linearized with the restriction enzyme SpeI (New England Biolabs [Genesearch]), and RNA was transcribed by T7 RNA polymerase using the mMESSAGE mMACHINE T7 kit (Thermo Fisher Scientific).
The transport activity of GlyT2 is an electrogenic process as it couples the transport of glycine to the co-transport of 3 Na^+ and 1 Cl^− and thus can be measured using two-electrode voltage-clamp electrophysiology. Oocytes expressing GlyTs were voltage-clamped at −60 mV, and glycine-induced whole-cell currents were measured using a GeneClamp 500 amplifier (Axon Instruments), and a PowerLab 2/26 chart recorder (ADInstruments) and LabChart Software (ADInstruments).
Functionality of WT and mutant GlyT2 transporters was assessed by applying increasing concentrations of glycine (1–3,000 µM) in ND96 until a stable current was achieved. Glycine concentrations were applied individually and completely removed from the system via washing with recording buffer before proceeding to the next concentration. EC50 values for each transporter were determined by fitting concentration–response data to the modified Michaelis–Menten equation: I=([Gly].Imax)/(EC50+[Gly]), where I is current in nA, [Gly] is the concentration of glycine, Imax is the current generated by a maximal concentration of glycine, and EC50 is the concentration of glycine that generates a half-maximal current.

NCC(=O)O [Glycine, glycine]
Reduction in apparent glycine affinity compared to WT (T512A vs WT): 4.8 fold
pEC50 (read-out: Glycine EC50, T512A (TM7)): 4.05
